Test results as given in US9182664B2, “Polymerizable fluorine-containing sulfonate, fluorine-containing sulfonate resin, resist composition and pattern-forming method using same” (Central Glass Company, Limited, priority 2010, dated 2015).
Like-named read-outs stand apart in the source and are kept apart here.

Assay: Solubility of polymerizable fluorine-containing sulfonic acid onium salts (polymerizable monomers) in PGMEA
Type: physicochemical
From the text: The structures and abbreviations of the polymerizable monomers used in this reference example are indicated below. Among others, the monomers PAG-1, PAG-2 and PAG-3 are the polymerizable fluorine-containing sulfonic acid onium salts according to the present invention. [table]

[1] = amount of polymerizable monomer in 100 g of PGMEA

Row | SMILES | Solubility (g/100 g) | Solubility (g/100 g) [1]
1 | C=C(C)C(=O)OC(OCC(F)(F)S(=O)(=O)O)(C(=O)OCC)C(F)(F)F (centres unmarked) [PAG-1, Triphenylsulfonium 2-(1-Ethoxycarbonyl-1-methacryloyloxy-2,2,2-trifluoroethoxy)-1,1-difluoroethanesulfonate] | 45 g/100 g | –
2 | C=C(C)C(=O)OC(OCCC(F)(F)C(F)(F)S(=O)(=O)O)(C(=O)OCC)C(F)(F)F (centres unmarked) [PAG-2, Triphenylsulfonium 4-(1-Ethoxycarbonyl-1-methacryloyloxy-2,2,2-trifluoroethoxy)-1,1,2,2-tetrafluorobutanesulfonate] | 55 g/100 g | –
3 | C=C(C)C(=O)OC(OCCCCC(F)(F)C(F)(F)S(=O)(=O)O)(C(=O)OCC)C(F)(F)F (centres unmarked) [PAG-3, Triphenylsulfonium 6-(1-Ethoxycarbonyl-1-methacryloyloxy-2,2,2-trifluoroethoxy)-1,1,2,2-tetrafluorohexanesulfonate] | 90 g/100 g | –
4 | C=C(C)C(=O)OCC(F)(F)S(=O)(=O)O [PAG-C1, reference compound] | – | 10 g/100 g
5 | C=C(C)C(=O)OCC(=O)OCC(F)(F)S(=O)(=O)O [PAG-C2, reference compound] | – | 11 g/100 g
